# Source: the supplement of paper PMC10307832
# Experiments:
# Experiment in all cases: relative viability (nuclei count vs DMSO), 5 days (fraction); higher = more cells survive
# R406 + Luminespib = compound: COc1cc(Nc2ncc(F)c(Nc3ccc4c(n3)NC(=O)C(C)(C)O4)n2)cc(OC)c1OC [R406] + CCNC(=O)c1noc(-c2cc(C(C)C)c(O)cc2O)c1-c1ccc(CN2CCOCC2)cc1 [Luminespib] (partner 0.01 µM)
# How it was run: (§1)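 Five library-drug doses in √10 steps were combined with a fixed anchor-drug dose, or a single drug was given alone, by pin tool to lung cancer cell lines in 1536-well plates the day after seeding. Nuclei were stained and counted after 5 days. Relative viability is the nuclei count in treated wells over that in vehicle wells, taken as the median of duplicate plates.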
# R406 + AZD7762 = compound: COc1cc(Nc2ncc(F)c(Nc3ccc4c(n3)NC(=O)C(C)(C)O4)n2)cc(OC)c1OC [R406] + NC(=O)Nc1cc(-c2cccc(F)c2)sc1C(=O)N[C@H]1CCCNC1 [AZD7762] (partner 0.2 µM)
# How it was run: as §1
# Daporinad + Palbociclib = compound: O=C(/C=C/c1cccnc1)NCCCCC1CCN(C(=O)c2ccccc2)CC1 [Daporinad] + CC(=O)c1c(C)c2cnc(Nc3ccc(N4CCNCC4)cn3)nc2n(C2CCCC2)c1=O [Palbociclib] (partner 0.5 µM)
# How it was run: as §1
# R406 + Palbociclib = compound: COc1cc(Nc2ncc(F)c(Nc3ccc4c(n3)NC(=O)C(C)(C)O4)n2)cc(OC)c1OC [R406] + CC(=O)c1c(C)c2cnc(Nc3ccc(N4CCNCC4)cn3)nc2n(C2CCCC2)c1=O [Palbociclib] (partner 0.5 µM)
# How it was run: as §1
cell line,measurement,setting,value
NCI-H1755,relative viability,R406 + Luminespib; first compound 0.08 µM,0.351
same,relative viability,R406 + Luminespib; first compound 0.253 µM,0.459
same,relative viability,R406 + Luminespib; first compound 0.8 µM,0.255
same,relative viability,R406 + Luminespib; first compound 2.53 µM,0.211
same,relative viability,R406 + Luminespib; first compound 8 µM,0.334
same,relative viability,R406 + AZD7762; first compound 0.08 µM,0.382
same,relative viability,R406 + AZD7762; first compound 0.253 µM,0.493
same,relative viability,R406 + AZD7762; first compound 0.8 µM,0.369
same,relative viability,R406 + AZD7762; first compound 2.53 µM,0.335
same,relative viability,R406 + AZD7762; first compound 8 µM,0.253
same,relative viability,Daporinad + Palbociclib; first compound 0.0005 µM,0.456
same,relative viability,Daporinad + Palbociclib; first compound 0.001581 µM,0.441
same,relative viability,Daporinad + Palbociclib; first compound 0.005 µM,0.415
same,relative viability,Daporinad + Palbociclib; first compound 0.01581 µM,0.431
same,relative viability,R406 + Palbociclib; first compound 0.08 µM,0.419
same,relative viability,R406 + Palbociclib; first compound 0.253 µM,0.456
same,relative viability,R406 + Palbociclib; first compound 0.8 µM,0.422
same,relative viability,R406 + Palbociclib; first compound 2.53 µM,0.421
same,relative viability,R406 + Palbociclib; first compound 8 µM,0.397
